The test system of data set [1] is glutamate-aspartate transaminase. Conditions: in words, prior art; cited from earlier work.
Another data set relates to tuberculosis bacilli. Conditions: in words, prior art; cited from earlier work.
Another data set relates to Micrococcus luteus. The experiment in a line: Agar plate filter disc test for antibacterial activity. Conditions: for Zone size: agar plate seeded with Micrococcus luteus, 12 hours at 30° C.; for antibacterial activity against Micrococcus luteus: agar plates, in words.

Molecules are shown by their SMILES.

`NC1CCONC1=O` (racemic) [DL-cyclocanaline, 4-amino-tetrahydro-1,2-oxazin-3-one]: in data set [1], the “inhibition of glutamate-aspartate transaminase” value was “known to inhibit”. For the same compound, the “activity against tuberculosis bacilli” value in the data set on tuberculosis bacilli is given as “exhibits activity”. Also, the Zone size is 48 mm in the data set on Micrococcus luteus (Weight 400 micrograms on disc) and 58 mm with Micrococcus luteus (Weight 600 micrograms on disc). The “antibacterial activity against Micrococcus luteus” value in the data set with Micrococcus luteus was “exhibited activity”.

For `C[C@H](C(=O)O)N1OCCCC1=O` [Compound R, 2R-(3-Oxo-[1,2]Oxazinan-2-yl)-Propionic Acid], the Zone size in the data set with Micrococcus luteus (Weight 400 micrograms on disc) was found to be 23 mm. The “antibacterial activity against Micrococcus luteus” value in the data set with Micrococcus luteus is given as “exhibited activity”.

For `CC(C(=O)O)N1OCCC(NC(=O)Cc2ccccc2)C1=O` (stereo not drawn) [UA, 2-(α-Carboxylethyl)-4-phenylacetylamino-1,2-oxazinan-3-one], the melting point lay within 189 to 190 °C.

Regarding `CC1=C(C(=O)O)N2C(=O)[C@@H](NC(=O)Cc3ccccc3)[C@H]2SC1` [desacetoxycephalosporin G], in the data set on Micrococcus luteus (Weight 10 micrograms on disc), the Zone size is listed as 39 mm.

(Values after patent publication US20030232820A1, “Method for synthesizing oxazinones” (priority 2001, published 2003).)
